Consider 1 compound from patent publication US11142524B2, “Substituted-3H-imidazo[4,5-c]pyridine and 1H-pyrrolo[2,3-c]pyridine series of novel Ectonucleotide Pyrophosphatase/Phosphodiesterase-1 (ENPP1) and stimulator for interferon genes (STING) modulators as cancer immunotherapeutics” (Stingray Therapeutics, Inc., priority 2018, dated 2021).

Assay [1] has as its target Recombinant Human ENPP-1 Protein (purified in-house) (Homo sapiens (Human), UniProt P22413). The assay is described as follows: ENPP1 Assay (ATP), Example 2. In kind it is biochemical. As for the experimental part:
Assay Buffer: 1 mM CaCl2, 0.2 mM ZnCl2, 50 mM Tris, pH 9.0. Substrate: 100 μM Adenosine 5′-triphosphate disodium salt hydrate (Promega: V703A)—Assay Conc.: 10 μM. Enzyme: 1 ng/μL Recombinant Human ENPP-1 Protein (purified in-house)—Assay Conc.: 5 ng/well of DMSO in 96-well white assay plates. Cell Titer Glo (Promega, cat #G7572).
A ten point serial dilution of drugs was prepared in 10× in assay buffer with the final assay concentrations starting at 10 μM, 3 μM, 1 μM, 0.3 μM . . . 0 μM. A dilution of DMSO was included as a control. The assay plate was set up as follows with each well in duplicate: 75 μL assay buffer+10 μL ENPP1 inhibitor or DMSO Dilutions+10 μL Substrate+5 μL Enzyme (5 ng). Both the enzyme and substrate were added to opposite sides of the well to ensure that there was no interaction until all wells had both components. The plate was then centrifuged gently for 10 seconds, followed by incubation at RT for 20 minutes. To detect levels of ATP, Cell Titer Glo was added 1:1 to each well and incubated for 10 minutes. The reaction was quantified by measuring luminescence using the Envision Plate Reader.

For the next assay, the target named is ENPP1 protein (Homo sapiens (Human), UniProt P22413). Briefly: ENPP1 Inhibition Assay (thymidine 5′-monophosphate p-nitrophenol ester substrate). In kind it is biochemical. As for the experimental part: Assay Buffer: 1 mM CaCl2, 0.2 mM ZnCl2, 50 mM Tris, pH 9.0. Substrate: 8 mM Thymidine 5′-monophosphate p-nitrophenol ester sodium salt (Sigma Cat #T4510). Enzyme: 5 ng/L Recombinant Human ENPP-1 Protein (R&D Cat #6136-EN-010) in DMSO in 96-well clear assay plates
An eight point serial dilution of drugs was prepared in 10× in assay buffer with the final assay concentrations starting at 10 μM, 3 μM, 1 μM, 0.3 μM . . . 0 μM. A dilution of DMSO was included as a control. The assay plate was set up as follows with each well in duplicate: 81 μL assay buffer+10 μL ENPP1 inhibitor or DMSO+5 μL Substrate+4 μL Enzyme. Both the enzyme and substrate were added to opposite sides of the well to ensure that there was no interaction until all wells had both components. The plate was then centrifuged gently for 10 seconds, followed by an incubation at 37° C. for 45 minutes. The reaction was quantified by measuring absorbance at 405 nm using the Envision.
IC50 values are determined using GraphPad Prism 5 software. The data were entered as an X-Y plot into the software as percent inhibition for each concentration of the drug. The concentration values of the drug were log transformed and the nonlinear regression was carried out using the “sigmoidal dose-response (variable slope)” option within the GraphPad software to model the data and calculate IC50 values. The IC50 values reported are the concentration of drug at which 50% inhibition was reached.

Another assay has as its system B16F10 tumor. The assay is described as follows: Anti-tumor efficacy in B16F10 (melanoma) syngeneic model. Format: in vivo, C57BL/6 mice. The source says:
Animals: Female C57BL/6 (4-6 week's age from Taconic).
The B16F10 cells were propagated in DMEM cell culture medium containing 10% Fetal Bovine Serum. Cells were harvested in logarithmic growth phase and implanted subcutaneously ([…]) in the lower abdomen of mice. Tumor growth was monitored daily and after the tumors had reached 80 to 100 mm3, mice were randomized into groups consisting of 8 animals per group. Animals were euthanized when tumors reached around 2000 mm^3 or treatment regime completed or 20% of body weight loss, or developed ulceration and necrosis. Upon termination, tumor samples and blood were collected and analyzed for biomarkers.

The next assay deals with Saos-2 Cells. Briefly: ENPP1 Mineralization Assay. The note with it: FIG. 9, mineralization components for 3 days. Format: cell-based.
A further assay has as its system UWB1.289. Briefly: Chou-Talalay Synergy Study with Olaparib, UWB1.289. The note with it: UWB1.289, 72 hours. Format: cell-based. The method, then:
Cell Lines: MDA-MB-468 and UWB289.1 (ATCC). Cell Titer Glo (Promega cat #: G7572). 96-well TC treated, white assay plates
Cells were cultured according to ATCC tissue culture recommendations. Cells were plated in a 96-well tissue culture plate at a density of 1500 cells/well and allowed to settle overnight. The following day, both drugs were prepared at 10× concentration in the following ratios (Compound 22:Olaparib): 1:1, 10:1, and 1:10. The drugs were serially diluted to create an 8-point dose curve and 10 μL of each drug was added to the cells for a total volume of 100 μL/well. Plates were placed in a tissue culture incubator for 72 hours. Following incubation, each plate was treated with Cell Titer Glo according to vendor recommendation and luminescence was measured with the Envision Plate Reader. Data was analyzed using CalcuSyn software according to the methods described in Chou, Drug combination studies and their synergy quantification using the Chou-Talalay method, Cancer Res. 2010 Jan. 15; 70(2):440-6.
A Combination index (CI) value greater than 1 indicates […], equal to 1 indicates additive and less than 1 indicates synergy.

Like-named read-outs stand apart in the source and are kept apart here.

Recombinant Human ENPP-1 Protein (purified in-house), sequence (P22413 whole entry, looked up): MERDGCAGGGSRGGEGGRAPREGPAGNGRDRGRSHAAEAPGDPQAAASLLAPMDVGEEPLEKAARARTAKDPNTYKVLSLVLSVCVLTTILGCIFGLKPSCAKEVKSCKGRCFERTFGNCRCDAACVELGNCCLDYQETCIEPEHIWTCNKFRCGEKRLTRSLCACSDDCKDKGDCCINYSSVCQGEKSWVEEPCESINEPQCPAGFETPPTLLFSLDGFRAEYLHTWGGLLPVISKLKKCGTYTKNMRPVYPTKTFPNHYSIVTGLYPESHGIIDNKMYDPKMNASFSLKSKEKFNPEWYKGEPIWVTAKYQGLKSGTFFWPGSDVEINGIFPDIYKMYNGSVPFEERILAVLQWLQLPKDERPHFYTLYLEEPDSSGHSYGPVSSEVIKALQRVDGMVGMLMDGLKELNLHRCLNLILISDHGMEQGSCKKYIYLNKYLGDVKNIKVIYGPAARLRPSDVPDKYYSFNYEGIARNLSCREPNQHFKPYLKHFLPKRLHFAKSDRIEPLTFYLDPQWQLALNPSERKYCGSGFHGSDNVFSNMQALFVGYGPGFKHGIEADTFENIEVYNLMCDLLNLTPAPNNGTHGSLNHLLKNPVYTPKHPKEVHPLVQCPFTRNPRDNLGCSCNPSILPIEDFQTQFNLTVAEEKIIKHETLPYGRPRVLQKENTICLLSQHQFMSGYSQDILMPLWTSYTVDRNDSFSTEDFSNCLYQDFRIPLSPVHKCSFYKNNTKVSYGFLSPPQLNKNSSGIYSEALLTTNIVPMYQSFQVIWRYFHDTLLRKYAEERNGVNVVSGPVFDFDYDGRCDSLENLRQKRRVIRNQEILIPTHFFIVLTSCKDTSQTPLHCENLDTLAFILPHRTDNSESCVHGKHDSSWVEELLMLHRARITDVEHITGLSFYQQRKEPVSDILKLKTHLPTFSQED
ENPP1 protein, sequence (P22413 whole entry, looked up, change not shown): as the sequence (P22413 whole entry, looked up) above

For the compound `COc1ccc(NC(=O)CSc2nc3c(C)c(C#N)ncc3[nH]2)cc1O` [Compound 78, 2-((6-Cyano-7-methyl-3H-imidazo[4,5-c]pyridin-2-yl)thio)-N-(3-hydroxy-4-methoxyphenyl) acetamide], the IC50 in assay [1] (FIG. 5B, ATP substrate, read-out: IC50) turned out to be 0.0731 µM; in assay [1] (Table 5, ATP substrate, read-out: ENPP1 (IC50 μM) ATP), 0.116 µM; on ENPP1 protein (Table 1, FIG. 1, read-out: IC50), 79.7 nM. In addition, the “inhibiting the activity of ENPP1” value against ENPP1 protein (FIG. 1) is recorded as “effective”. Besides, the “B16F10 tumor growth inhibition” value in the assay on B16F10 tumor (30 mg/kg dose (FIG. 6A / FIG. 13A)) is listed as 28%; with B16F10 tumor (FIG. 6B / FIG. 13B, dose and route not stated) it was 27%. Moreover, in the assay with Saos-2 Cells, the total mineralization result was “significant decrease”. The “ED50 Drug Concentration Compound 78” value in the assay with UWB1.289 was 48800 nM.

What is called IC50 is the concentration at which inhibition is half-maximal.
